Measurements as given in PubChem BioAssay (NCI).
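In this assay, cells in 96-well plates receive the compound at five concentrations for 48 hours. Endpoints are linearly interpolated between the surrounding concentrations. Definition used: TGI = concentration required for complete inhibition of growth.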

Experiments:
Test in all cases: DTP human tumour cell line panel, 48 h
[1] = system: RXF 393 renal
[2] = system: IGROV1 ovarian
[3] = system: HCT-116 colon
[4] = system: T-47D breast
[5] = system: HCT-15 colon
[6] = system: KM12 colon
[7] = system: MOLT-4 leukemia
[8] = system: U251 CNS
[9] = system: EKVX NSCLC
[10] = system: MCF7 breast
[11] = system: PC-3 prostate

Row | Compound | TGI [1] [µM] | TGI [2] [µM] | TGI [3] [µM] | TGI [4] [µM] | TGI [5] [µM] | TGI [6] [µM] | TGI [7] [µM] | TGI [8] [µM] | TGI [9] [µM] | TGI [10] [µM] | TGI [11] [µM]
1 | C=C1CN(C(=O)c2cc3cc(OC)c(OC)c(OC)c3[nH]2)c2cc([N+](=O)[O-])ccc21 | > 100 | > 100 | > 100 | > 100 | > 100 | > 100 | > 100 | > 100 | > 100 | > 100 | > 100
2 | COC(=O)[C@@]12CC3CN(Cc4c1[nH]c1ccccc41)C2CC3=O | > 100 | > 100 | > 100 | > 100 | > 100 | > 100 | > 100 | > 100 | > 100 | > 100 | > 100
3 | CCCCOP(=O)(OCCCC)C(NS(=O)(=O)c1ccccc1)(C(=O)OCC)C(F)(F)F (stereo not given) | 53 | 65.6 | 66.9 | > 100 | > 100 | 93.2 | 58.1 | 65 | > 100 | 76.1 | > 100
4 | CC(C)=CCC[C@@H](C)c1c(O)c(O)c(C)c2nc3ccccc3nc12 | 4.45 | 10.7 | 12.2 | 10.6 | 15 | 13.2 | > 27.9 | 22.8 | 14.8 | 13.4 | 11.3
5 | CCOC(=O)n1c2ccccc2c2c(O)c(OC)c3c(c21)C(=O)NC3=O |  | > 100 | 49 | > 100 | > 100 | > 100 | > 100 | > 100 | > 100 | > 100 | > 100
6 | NCCCCN(CCCN)C(=O)OCc1ccccc1 | > 100 | > 100 | > 100 | > 100 | > 100 | > 100 | > 100 | > 100 | > 100 | > 100 | > 100
7 | O=C(O)C(C1NCCS1)N1Cc2ccccc2C1 (stereo not given) | > 100 | > 100 | > 100 | > 100 | > 100 | > 100 | > 100 | > 100 | > 100 | > 100 | > 100
8 | CC1CCC(O)/C=C/C(=O)OC(C)C(O)/C=C/C(=O)O1 (stereo not given) | > 100 | > 100 | > 100 | > 100 | > 100 | > 100 | > 100 | > 100 | > 100 | > 100 | > 100
9 | CN(C)c1ccc(C(=C2C=CC(=[N+](C)C)C=C2)c2c(O)c(S(=O)(=O)[O-])cc3cc(S(=O)(=O)O)ccc23)cc1 | > 100 | > 100 | > 100 | > 100 | > 100 | > 100 | > 100 | > 100 | > 100 | > 100 | > 100
10 | O=C(NC12CC3CC(CC(C3)C1)C2)n1cnc2cncnc21 | > 100 | 98 | > 100 | > 100 | > 100 | > 100 | > 100 | > 100 | > 100 | > 100 | 98.7
11 | O=c1[nH]nc(Nc2ccccc2)c2nnn(Cc3ccccc3)c12 | > 100 | > 100 | > 100 | > 100 | > 100 | > 100 | > 100 | > 100 | > 100 | > 100 | > 100
12 | COc1ccc(/C=C/C=C2C(=O)NC(=S)NC2=O)cc1 | 16.8 | 15.4 | 13.7 | > 100 | 8.68 | 34.6 | 10 | 5.1 | 25.7 | 22 | 43.8
13 | COC(=O)/C=C1\C(=O)N(C(C)=O)c2ccccc21 | 21.5 | 22.4 | 31.2 | 30.5 | 26.2 | 29.2 | 31.4 | 37.2 | 31 | 28.2 | > 54.9
14 | NC1=CN2c3ccccc3N(CC(=O)N3CCOCC3)C2C=C1 (stereo not given) | > 100 | > 100 | > 100 | > 100 | > 100 | > 100 | > 100 | > 100 | > 100 | > 100 | > 100
15 | CN(CCN(C)Cc1ccc(Cl)c(Cl)c1)CCN1CCCC1 | 99.9 | > 79.1 | > 57.8 | > 100 | > 100 | > 100 | > 72.4 | > 100 | > 100 | > 85.1 | > 100
16 | Cc1cc([C@H](C#N)c2nc3ccccc3s2)nc(Cl)n1 | > 100 | 23.3 | 15.3 | 31.6 | 16.3 | 9.08 | > 100 | 12.4 | 59.4 | > 100 | > 100
17 | O=c1[nH]c(=O)n(COCCO)cc1-c1ccccc1 |  | > 100 | > 100 | > 100 | > 100 | > 100 | > 100 | > 100 | > 100 | > 100 | > 100
18 | CC(C)OCC(O)COc1cc(=O)oc2ccccc12 (stereo not given) |  | > 100 | > 100 | > 100 | > 100 | > 100 | > 100 | > 100 | > 100 | > 100 | > 100
19 | O=C1N2CCN=C2c2ccccc2C1(O)c1ccccc1 (stereo not given) |  | > 100 | > 100 | > 100 | > 100 | > 100 | > 100 | > 100 | > 100 | > 100 | > 100
20 | C/C(=C/CC[C@](C)(OC1OC(CO)C(O)C(O)C1OC1OC(C)C(O)C(O)C1O)[C@H]1CC[C@]2(C)[C@@H]1CC[C@@H]1[C@@]3(C)CC[C@H](O)C(C)(C)[C@@H]3C[C@H](O)[C@]12C)CO (stereo not given in full) | > 100 | > 100 | > 100 | > 100 |  | > 100 | > 100 | > 100 | > 100 | > 100 | > 100
